Tests used:
[1] = molecular target: Histone acetyltransferase p300 (Homo sapiens, UniProt Q09472)
Description: Inhibition of p300 (unknown origin)

NCI-H520 = assay: Antiproliferative activity against human NCI-H520 cells assessed as inhibition of cell growth incubated for 72 hrs by MTT assay; type: functional, cell-based; settings: NCI-H520, 72 h
MDA-MB-231 = assay: Antiproliferative activity against human MDA-MB-231 cells assessed as inhibition of cell proliferation at 10 uM incubated for 72 hrs by MTT assay relative to control; type: functional

Histone acetyltransferase p300, sequence (Q09472 whole entry): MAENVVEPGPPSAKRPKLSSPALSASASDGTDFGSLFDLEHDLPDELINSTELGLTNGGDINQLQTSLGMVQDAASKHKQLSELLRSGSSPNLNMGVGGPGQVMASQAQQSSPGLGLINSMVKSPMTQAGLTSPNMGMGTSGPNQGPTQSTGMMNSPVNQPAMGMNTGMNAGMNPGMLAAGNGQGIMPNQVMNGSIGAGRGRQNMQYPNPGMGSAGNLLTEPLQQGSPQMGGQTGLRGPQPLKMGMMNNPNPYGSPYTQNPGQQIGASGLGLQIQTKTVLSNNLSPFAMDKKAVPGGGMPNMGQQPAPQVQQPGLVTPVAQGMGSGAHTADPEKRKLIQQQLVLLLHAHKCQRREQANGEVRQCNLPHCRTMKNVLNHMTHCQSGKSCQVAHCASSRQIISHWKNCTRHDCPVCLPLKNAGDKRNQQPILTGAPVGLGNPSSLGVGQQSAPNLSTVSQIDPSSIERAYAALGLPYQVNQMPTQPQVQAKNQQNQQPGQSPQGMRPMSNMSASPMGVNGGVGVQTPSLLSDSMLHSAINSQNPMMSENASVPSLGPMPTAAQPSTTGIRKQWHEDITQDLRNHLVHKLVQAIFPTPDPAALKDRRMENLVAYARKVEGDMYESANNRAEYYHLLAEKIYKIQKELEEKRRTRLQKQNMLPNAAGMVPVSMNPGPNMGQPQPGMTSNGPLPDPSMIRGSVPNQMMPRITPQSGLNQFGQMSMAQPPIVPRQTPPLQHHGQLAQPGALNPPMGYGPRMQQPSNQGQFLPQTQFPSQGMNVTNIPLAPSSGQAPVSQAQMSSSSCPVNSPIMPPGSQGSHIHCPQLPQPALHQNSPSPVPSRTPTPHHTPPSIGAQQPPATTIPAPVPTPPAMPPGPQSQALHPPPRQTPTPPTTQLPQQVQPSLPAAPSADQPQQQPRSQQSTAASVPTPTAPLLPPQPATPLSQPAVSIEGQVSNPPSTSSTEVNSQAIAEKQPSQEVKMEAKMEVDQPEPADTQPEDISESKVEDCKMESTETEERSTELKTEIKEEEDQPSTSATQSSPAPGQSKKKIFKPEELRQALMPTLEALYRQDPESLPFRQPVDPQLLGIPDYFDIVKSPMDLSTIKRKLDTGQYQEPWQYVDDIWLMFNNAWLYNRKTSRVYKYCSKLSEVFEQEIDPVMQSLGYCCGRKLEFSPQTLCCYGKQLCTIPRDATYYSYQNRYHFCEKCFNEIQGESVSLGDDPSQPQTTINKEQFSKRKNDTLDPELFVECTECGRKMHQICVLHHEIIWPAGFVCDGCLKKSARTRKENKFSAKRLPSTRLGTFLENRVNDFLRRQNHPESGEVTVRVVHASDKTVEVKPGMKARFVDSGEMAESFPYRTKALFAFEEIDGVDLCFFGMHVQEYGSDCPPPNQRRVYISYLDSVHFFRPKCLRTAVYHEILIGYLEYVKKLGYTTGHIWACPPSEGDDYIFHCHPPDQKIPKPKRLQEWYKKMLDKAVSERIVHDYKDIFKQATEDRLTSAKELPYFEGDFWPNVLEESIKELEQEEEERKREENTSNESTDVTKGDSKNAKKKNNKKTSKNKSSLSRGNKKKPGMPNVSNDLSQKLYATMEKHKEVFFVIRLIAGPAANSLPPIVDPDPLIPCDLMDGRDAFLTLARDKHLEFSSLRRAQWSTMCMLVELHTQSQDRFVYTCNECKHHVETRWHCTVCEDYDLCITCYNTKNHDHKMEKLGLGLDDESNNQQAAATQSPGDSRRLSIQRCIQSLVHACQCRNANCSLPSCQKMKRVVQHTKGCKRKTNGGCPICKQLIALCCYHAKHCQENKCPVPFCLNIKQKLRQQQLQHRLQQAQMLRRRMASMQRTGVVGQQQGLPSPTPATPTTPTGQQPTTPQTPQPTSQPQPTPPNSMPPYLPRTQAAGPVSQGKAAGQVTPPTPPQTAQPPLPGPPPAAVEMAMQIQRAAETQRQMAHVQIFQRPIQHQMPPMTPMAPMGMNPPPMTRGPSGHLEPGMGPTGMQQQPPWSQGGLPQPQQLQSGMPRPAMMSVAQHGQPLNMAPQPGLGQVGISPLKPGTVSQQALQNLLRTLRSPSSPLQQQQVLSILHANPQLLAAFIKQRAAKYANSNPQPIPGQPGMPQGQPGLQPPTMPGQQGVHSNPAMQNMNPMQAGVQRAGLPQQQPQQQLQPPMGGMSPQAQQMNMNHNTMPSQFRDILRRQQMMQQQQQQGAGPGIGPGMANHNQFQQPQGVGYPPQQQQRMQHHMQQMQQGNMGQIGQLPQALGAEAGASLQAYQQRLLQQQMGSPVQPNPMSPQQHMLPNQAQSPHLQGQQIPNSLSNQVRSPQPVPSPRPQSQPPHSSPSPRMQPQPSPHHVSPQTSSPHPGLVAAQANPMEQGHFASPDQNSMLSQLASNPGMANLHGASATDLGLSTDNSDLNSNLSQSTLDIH

| Structure (SMILES) | IC50 [1] | IC50 (NCI-H520) | inhibition at 10 µM (MDA-MB-231) |
| --- | --- | --- | --- |
| Nc1ccn(Cc2ccc(-c3cn(CCCCCCC(=O)O)nn3)cc2)c(=O)n1 | 960 nM |  |  |
| CCOC(=O)CCCCn1cc(-c2ccc(Cn3ccc(N)nc3=O)cc2)nn1 | 560 nM |  |  |
| CCOC(=O)CCCCCCn1cc(-c2ccc(Cn3cnc(N)nc3=O)cc2)nn1 | 650 nM |  |  |
| CCOC(=O)CCCCCCn1cc(-c2ccc(Cn3ccc(=O)[nH]c3=O)cc2)nn1 | 2000 nM |  |  |
| Nc1ccn(Cc2ccc(-c3cn(CCCCCC(=O)O)nn3)cc2)c(=O)n1 | 4120 nM |  |  |
| CCOC(=O)CCCCCCn1cc(-c2ccc(Cn3ccc(N)nc3=O)cc2)nn1 | 640 nM |  |  |
| CCOC(=O)CCCCCCn1cc(-c2ccc(Cn3cc(C)c(N)nc3=O)cc2)nn1 | 770 nM |  |  |
| Nc1ccn(Cc2cn(CCCCc3ccc(C(=O)O)cc3)nn2)c(=O)n1 | 4570 nM |  |  |
| CCOC(=O)CCCCCn1cc(Cn2cc(F)c(N)nc2=O)nn1 | 800 nM |  |  |
| CCOC(=O)CCCCCn1cc(Cn2cc(C)c(N)nc2=O)nn1 | 1100 nM |  |  |
| Nc1ccn(Cc2ccc(-c3cn(CCCC(=O)O)nn3)cc2)c(=O)n1 | 560 nM |  |  |
| CCOC(=O)CCCCCCn1cc(-c2ccc(Cn3cc(F)c(N)nc3=O)cc2)nn1 | 2600 nM |  |  |
| CCOC(=O)CCCCCCn1cc(-c2ccc(Cn3cnc4c(N)ncnc43)cc2)nn1 | 9900 nM |  |  |
| CCOC(=O)CCCCCn1cc(Cn2ccc(N)nc2=O)nn1 | 7800 nM |  |  |
| Nc1ccn(Cc2ccc(-c3cn(CCCCc4ccc(C(=O)O)cc4)nn3)cc2)c(=O)n1 | 1140 nM |  |  |
| CCOC(=O)CCCCn1cc(-c2ccc(Cn3cnc(N)nc3=O)cc2)nn1 | 880 nM |  |  |
| CCOC(=O)CCCCCn1cc(-c2ccc(Cn3ccc(N)nc3=O)cc2)nn1 | 600 nM |  |  |
| CCOC(=O)CCCCn1cc(Cn2cnc(N)nc2=O)nn1 | 7690 nM |  |  |
| CCOC(=O)CCCn1cc(-c2ccc(Cn3cnc(N)nc3=O)cc2)nn1 | 4590 nM |  |  |

Now those with a lower IC50 [1], led by results:

| IC50 [1] | IC50 (NCI-H520) | Structure (SMILES) | inhibition at 10 µM (MDA-MB-231) |
| --- | --- | --- | --- |
| 360 nM |  | CCOC(=O)CCCn1cc(-c2ccc(Cn3ccc(N)nc3=O)cc2)nn1 |  |
| 530 nM |  | CCOC(=O)CCCCCn1cc(-c2ccc(Cn3cnc(N)nc3=O)cc2)nn1 |  |
| 360 nM |  | COC(=O)c1ccc(CCCCn2cc(-c3ccc(Cn4cnc(N)nc4=O)cc3)nn2)cc1 |  |
| 250 nM |  | Nc1nc(=O)n(Cc2ccc(-c3cn(CCCCc4ccc(C(=O)O)cc4)nn3)cc2)cc1F |  |
| 480 nM |  | CCOC(=O)CCCCCn1cc(Cn2cnc(N)nc2=O)nn1 |  |
| 240 nM |  | Nc1ccn(Cc2ccc(-c3cn(CCCCC(=O)O)nn3)cc2)c(=O)n1 |  |
| 180 nM | 12200 nM | COC(=O)c1ccc(CCCCn2cc(-c3ccc(Cn4ccc(N)nc4=O)cc3)nn2)cc1 |  |
| 370 nM | 23200 nM | COC(=O)c1ccc(CCCCn2cc(-c3ccc(Cn4cc(F)c(N)nc4=O)cc3)nn2)cc1 |  |
| 430 nM |  | CCOC(=O)CCCCCCn1cc(Cn2cnc(N)nc2=O)nn1 |  |
| 240 nM |  | COC(=O)c1ccc(CCCCn2cc(-c3ccc(Cn4cc(C)c(N)nc4=O)cc3)nn2)cc1 | > 50% |
